# Results as given in ChEMBL document CHEMBL5370530, “Discovery of 2,5-diaminopyrimidine derivatives as the first series of selective monomeric degraders of B-lymphoid tyrosine kinase” (Eur J Med Chem, 2023).
# Calls of active or inactive are those of the source. The calls are words filed in the database; no cut-off is given here.
# Experiments:
# [1] = target: Tyrosine-protein kinase BTK (Homo sapiens, UniProt Q06187); experiment: Inhibition of full length N-terminal GST tagged BTK (2 to 659 end residues) (unknown origin) expressed in Sf21insect cells by time resolved fluorescence based assay; design: species or system Sf21
# [2] = target: Tyrosine-protein kinase SYK (Homo sapiens, UniProt P43405); experiment: Inhibition of SYK phosphorylation in human Ramos cells incubated for 1 hr; type: cell-based
# [3] = target: Tyrosine-protein kinase Lck (Homo sapiens) (UniProt P06239); experiment: Induction of degradation of LCK in human Jurkat cells assessed as maximum degradation at > 1 uM incubated for 12 hrs by Western blot analysis relative to control; type: cell-based
# [4] = system: DOHH-2; experiment: Antiproliferative activity against human DOHH-2 cells at 0.1 to 0.3 uM measured after 72 hrs by cell titer glo luminescent cell viability assay; type: functional, cell-based; details: dose 0.1-0.3 µM
# [5] = system: HBL1; experiment: Antiproliferative activity against human HBL1 cells at 0.1 to 0.3 uM measured after 72 hrs by cell titer glo luminescent cell viability assay; type: functional, cell-based; details: dose 0.1-0.3 µM
# [6] = system: SUD4; experiment: Antiproliferative activity against human SU-DHL-4 cells at 0.1 to 0.3 uM measured after 72 hrs by cell titer glo luminescent cell viability assay; type: functional, cell-based; details: dose 0.1-0.3 µM
# [7] = system: Pfeiffer; experiment: Antiproliferative activity against human Pfeiffer cells at 0.1 to 0.3 uM measured after 72 hrs by cell titer glo luminescent cell viability assay; type: functional, cell-based; details: dose 0.1-0.3 µM
# [8] = system: SU-DHL-6; experiment: Antiproliferative activity against human SU-DHL-6 cells at 0.1 to 0.3 uM measured after 72 hrs by cell titer glo luminescent cell viability assay; type: functional, cell-based; details: dose 0.1-0.3 µM
# [9] = system: RS4-11; experiment: Antiproliferative activity against human RS4-11 cells at 0.1 to 0.3 uM measured after 72 hrs by cell titer glo luminescent cell viability assay; type: functional, cell-based; details: dose 0.1-0.3 µM
# [10] = system: OPM-2; experiment: Antiproliferative activity against human OPM-2 cells at 0.1 to 0.3 uM measured after 72 hrs by cell titer glo luminescent cell viability assay; type: functional, cell-based; details: dose 0.1-0.3 µM
# [11] = system: OCI-Ly7; experiment: Antiproliferative activity against human OCILY7 cells at 0.1 to 0.3 uM measured after 72 hrs by cell titer glo luminescent cell viability assay; type: functional, cell-based; details: dose 0.1-0.3 µM
# [12] = system: Raji; experiment: Antiproliferative activity against human Raji cells at 0.1 to 0.3 uM measured after 72 hrs by cell titer glo luminescent cell viability assay; type: functional, cell-based; details: dose 0.1-0.3 µM
# [13] = system: Ramos; experiment: Antiproliferative activity against human Ramos cells at 0.1 to 0.3 uM measured after 72 hrs by cell titer glo luminescent cell viability assay; type: functional, cell-based; details: dose 0.1-0.3 µM
# [14] = system: NAMALVA; experiment: Antiproliferative activity against human NAMALVA cells at 0.1 to 0.3 uM measured after 72 hrs by cell titer glo luminescent cell viability assay; type: functional, cell-based; details: dose 0.1-0.3 µM
# [15] = system: TMD8; experiment: Antiproliferative activity against human TMD8 cells at 0.1 to 0.3 uM measured after 72 hrs by cell titer glo luminescent cell viability assay; type: functional, cell-based; details: dose 0.1-0.3 µM
# [16] = system: RPMI-8226; experiment: Antiproliferative activity against human RPMI-8226 cells at 0.1 to 0.3 uM measured after 72 hrs by cell titer glo luminescent cell viability assay; type: functional, cell-based; details: dose 0.1-0.3 µM
# [17] = system: CCRF-CEM; experiment: Antiproliferative activity against human CCRF-CEM cells at 0.1 to 0.3 uM measured after 72 hrs by cell titer glo luminescent cell viability assay; type: functional, cell-based; details: dose 0.1-0.3 µM
# [18] = system: 6T-CEM; experiment: Antiproliferative activity against human 6T-CEM cells at 0.1 to 0.3 uM measured after 72 hrs by cell titer glo luminescent cell viability assay; type: functional, cell-based; details: dose 0.1-0.3 µM
# [19] = system: MOLT-4; experiment: Antiproliferative activity against human MOLT-4 cells at 0.1 to 0.3 uM measured after 72 hrs by cell titer glo luminescent cell viability assay; type: functional, cell-based; details: dose 0.1-0.3 µM
# [20] = system: Jurkat; experiment: Antiproliferative activity against human Jurkat cells at 0.1 to 0.3 uM measured after 72 hrs by cell titer glo luminescent cell viability assay; type: functional, cell-based; details: dose 0.1-0.3 µM
# [21] = system: A-431; experiment: Antiproliferative activity against human A-431 cells at 0.1 to 0.3 uM measured after 72 hrs by cell titer glo luminescent cell viability assay; type: functional, cell-based; details: dose 0.1-0.3 µM
# [22] = system: PC-9; experiment: Antiproliferative activity against human PC-9 cells at 0.1 to 0.3 uM measured after 72 hrs by cell titer glo luminescent cell viability assay; type: functional, cell-based; details: dose 0.1-0.3 µM
# [23] = system: A549; experiment: Antiproliferative activity against human A549 cells at 0.1 to 0.3 uM measured after 72 hrs by cell titer glo luminescent cell viability assay; type: functional, cell-based; details: dose 0.1-0.3 µM
# [24] = system: A-375; experiment: Antiproliferative activity against human A-375 cells at 0.1 to 0.3 uM measured after 72 hrs by cell titer glo luminescent cell viability assay; type: functional, cell-based; details: dose 0.1-0.3 µM
# [25] = system: DOHH-2; experiment: Growth inhibition of human DOHH-2 cells measured after 72 hrs by cell titer glo luminescent cell viability assay; type: functional
# [26] = system: SUD4; experiment: Growth inhibition of human SU-DHL-4 cells measured after 72 hrs by cell titer glo luminescent cell viability assay; type: functional
# [27] = system: SU-DHL-6; experiment: Growth inhibition of human SU-DHL-6 cells measured after 72 hrs by cell titer glo luminescent cell viability assay; type: functional
# [28] = system: DOHH-2; experiment: Downregulation of CDK2 level in human DOHH-2 cells at 1 uM measured after 48 hrs by Western blot analysis; type: functional, cell-based
# [29] = system: SU-DHL-6; experiment: Downregulation of CDK2 level in human SU-DHL-6 cells at 1 uM measured after 48 hrs by Western blot analysis; type: functional, cell-based
# [30] = system: Ramos; experiment: (§1) Downregulation of BLK level in human Ramos cells at 0.3 uM measured after 12 hrs by Western blot analysis; type: functional
# [31] = as §1; type: functional
# Sequence of Tyrosine-protein kinase BTK (Q06187 whole entry): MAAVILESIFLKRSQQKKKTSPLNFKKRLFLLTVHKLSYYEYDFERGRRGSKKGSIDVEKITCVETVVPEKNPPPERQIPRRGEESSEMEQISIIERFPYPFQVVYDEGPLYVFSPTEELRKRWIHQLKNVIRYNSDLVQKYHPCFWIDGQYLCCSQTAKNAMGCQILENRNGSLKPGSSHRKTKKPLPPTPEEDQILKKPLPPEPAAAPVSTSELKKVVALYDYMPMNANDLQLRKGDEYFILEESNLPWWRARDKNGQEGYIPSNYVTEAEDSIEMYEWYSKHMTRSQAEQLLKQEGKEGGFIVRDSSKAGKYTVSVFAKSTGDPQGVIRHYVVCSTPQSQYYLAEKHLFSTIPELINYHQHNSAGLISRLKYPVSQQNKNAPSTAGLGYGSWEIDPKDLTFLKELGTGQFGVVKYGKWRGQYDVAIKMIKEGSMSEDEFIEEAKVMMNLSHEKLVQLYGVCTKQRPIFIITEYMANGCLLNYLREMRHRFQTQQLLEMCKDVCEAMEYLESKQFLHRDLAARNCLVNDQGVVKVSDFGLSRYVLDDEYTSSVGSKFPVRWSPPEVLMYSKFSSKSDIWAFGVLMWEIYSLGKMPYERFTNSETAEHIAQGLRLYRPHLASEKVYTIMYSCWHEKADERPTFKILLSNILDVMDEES
# Sequence of Tyrosine-protein kinase Lck (Homo sapiens) (P06239 2-509 limits assumed): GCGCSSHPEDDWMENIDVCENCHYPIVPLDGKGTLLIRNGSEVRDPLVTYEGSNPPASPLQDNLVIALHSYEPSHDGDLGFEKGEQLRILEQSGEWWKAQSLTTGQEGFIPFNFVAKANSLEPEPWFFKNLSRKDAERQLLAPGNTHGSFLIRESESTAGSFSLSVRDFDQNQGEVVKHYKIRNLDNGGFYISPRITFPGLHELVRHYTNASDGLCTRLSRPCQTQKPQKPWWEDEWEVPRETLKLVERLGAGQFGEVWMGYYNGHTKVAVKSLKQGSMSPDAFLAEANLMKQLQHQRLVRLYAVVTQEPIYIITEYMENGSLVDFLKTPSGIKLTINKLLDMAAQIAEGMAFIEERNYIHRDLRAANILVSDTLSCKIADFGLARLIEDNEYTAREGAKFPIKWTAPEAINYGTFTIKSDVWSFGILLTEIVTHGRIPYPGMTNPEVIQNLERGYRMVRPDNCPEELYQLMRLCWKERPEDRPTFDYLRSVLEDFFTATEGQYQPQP
smiles,measurement,setting,value
Cc1ccc(NC(=O)c2ccc(-c3cccc(C(F)(F)F)c3)cc2)cc1C(=O)Nc1cnc(Nc2cccc(N)c2)nc1,IC50,[1],2560 nM
same,IC50,[2],2900 nM
same,Emax,[3],< 50%
same,Activity,[4],Active
same,Activity,[5],inactive
same,Activity,[6],Active
same,Activity,[7],Active
same,Activity,[8],Active
same,Activity,[9],inactive
same,Activity,[10],inactive
same,Activity,[11],inactive
same,Activity,[12],inactive
same,Activity,[13],inactive
same,Activity,[14],inactive
same,Activity,[15],inactive
same,Activity,[16],inactive
same,Activity,[17],inactive
same,Activity,[18],inactive
same,Activity,[19],inactive
same,Activity,[20],inactive
same,Activity,[21],inactive
same,Activity,[22],inactive
same,Activity,[23],inactive
same,Activity,[24],inactive
same,GI50,[25],130 nM
same,GI50,[26],180 nM
same,GI50,[27],360 nM
same,Activity,[28],Active
same,Activity,[29],Active
Cc1ccc(NC(=O)C[C@@]23C[C@@H]4C[C@@H](C[C@@](O)(C4)C2)C3)cc1C(=O)Nc1cnc(Nc2cccc(N)c2)nc1,IC50,[1],855 nM
Cc1ccc(NC(=O)c2ccc3ccccc3c2)cc1C(=O)Nc1cnc(Nc2cccc(N)c2)nc1,IC50,[2],< 100 nM
C=CC(=O)Nc1cccc(Nc2nc(Nc3ccc(OCCOC)cc3)ncc2F)c1,Activity,[30],Active
Cc1ccc(-c2nn(C(C)(C)C)c3ncnc(N)c23)cc1,Activity,[30],inactive
same,GI50,[25],3700 nM
same,GI50,[26],> 10000 nM
same,GI50,[27],4700 nM
Cc1ccc(NC(=O)CC23C[C@H]4C[C@@H](C2)C[C@@H](C3)C4)cc1C(=O)Nc1cnc(Nc2cccc(N)c2)nc1,IC50,[1],338 nM
C=CC(=O)N1CCC(c2cccc(Nc3ncc(NC(=O)c4cc(NC(=O)c5ccc6cnccc6c5)ccc4C)cn3)c2)CC1,Activity,[30],Active
C=CC(=O)NCCC(=O)c1cccc(Nc2ncc(NC(=O)c3cc(NC(=O)c4cccc(-c5ccc(F)cc5)c4)ccc3C)cn2)c1,Activity,[31],>85%
Cc1ccc(NC(=O)Cc2ccc(-c3ccccc3)cc2)cc1C(=O)Nc1cnc(Nc2cccc(N)c2)nc1,IC50,[1],5810 nM
same,Emax,[3],< 50%
same,GI50,[25],2500 nM
same,GI50,[26],8900 nM
same,GI50,[27],6200 nM
Cc1ccc(NC(=O)c2ccc3cnccc3c2)cc1C(=O)Nc1cnc(Nc2cccc(C3CCN(C(=O)/C=C/CN(C)C)CC3)c2)nc1,Activity,[30],Active
CCC(=O)Nc1cccc(Nc2ncc(NC(=O)c3cc(NC(=O)c4cccc(C(F)(F)F)c4)ccc3C)cn2)c1,Activity,[31],>85%
same,IC50,[2],< 100 nM
C=CC(=O)N1CCC[C@@H](n2nc(-c3ccc(Oc4ccccc4)cc3)c3c(N)ncnc32)C1,Activity,[30],inactive
Cc1ccc(NC(=O)c2ccc(Oc3ccccc3)cc2)cc1C(=O)Nc1cnc(Nc2cccc(N)c2)nc1,IC50,[1],991 nM
same,IC50,[2],2730 nM
same,Emax,[3],< 50%
CN1CCN(CCOc2cc(OC3CCOCC3)c3c(Nc4c(Cl)ccc5c4OCO5)ncnc3c2)CC1,Activity,[30],Active
Cc1nc(Nc2ncc(C(=O)Nc3c(C)cccc3Cl)s2)cc(N2CCN(CCO)CC2)n1,Activity,[30],Active
